What was measured:
endogenous B1 receptor = biological target: T1, endogenous B1 receptor (Rattus norvegicus, UniProt P97583); assay: Autoradiography of [3H]DALK binding in brain and spinal cord sections of non-transgenic rats; settings: non-transgenic control rats, 0.3 nM radioligand
T1 construct: DALK in non-transgenic control rats; from tissue; host or cells: brain and spinal cord sections (and whole-brain homogenate) of non-transgenic Sprague-Dawley rats
T1 sequence (P97583 1-337): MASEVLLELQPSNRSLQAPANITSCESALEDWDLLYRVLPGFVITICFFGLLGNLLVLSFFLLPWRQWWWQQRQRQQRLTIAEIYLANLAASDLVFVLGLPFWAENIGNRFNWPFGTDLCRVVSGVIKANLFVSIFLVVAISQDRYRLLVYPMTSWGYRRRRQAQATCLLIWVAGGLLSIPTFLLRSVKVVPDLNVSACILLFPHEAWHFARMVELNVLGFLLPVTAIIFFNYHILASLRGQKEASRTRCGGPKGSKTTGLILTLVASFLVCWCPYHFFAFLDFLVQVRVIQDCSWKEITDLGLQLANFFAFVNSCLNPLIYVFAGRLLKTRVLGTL

[1] = biological target: T2, human B1 bradykinin receptor (Homo sapiens, UniProt P46663); assay: 3H-DALK binding to membranes from transgenic rat brain tissue
T2 construct: from tissue; host or cells: whole-brain membranes of transgenic Sprague-Dawley rats carrying Construct #1
T2 sequence (P46663 1-353): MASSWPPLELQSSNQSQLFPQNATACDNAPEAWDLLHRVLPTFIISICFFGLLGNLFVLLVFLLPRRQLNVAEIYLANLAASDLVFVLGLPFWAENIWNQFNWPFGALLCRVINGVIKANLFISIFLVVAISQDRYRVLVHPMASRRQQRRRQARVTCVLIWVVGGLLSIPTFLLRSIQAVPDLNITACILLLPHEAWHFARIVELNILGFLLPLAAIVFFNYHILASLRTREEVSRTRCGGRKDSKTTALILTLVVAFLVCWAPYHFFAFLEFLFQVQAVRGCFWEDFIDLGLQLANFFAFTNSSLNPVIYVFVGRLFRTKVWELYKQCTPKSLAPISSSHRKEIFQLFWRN
Protocol: Also important in these assays is the low expression level of endogenous B1 receptor in neuronal tissue. Briefly, transgenic animals from line 0004, 0014, and 0015 (all females) were decapitated following anesthesia and the whole brain was removed, bisected sagitally and the entire 1⁄2 brain weighed. Weights were as follows: line 0004 (813 mg), line 0014 (851 mg), and 0015 (843 mg). The brain tissue was homogenized with a Polytron in ice cold 50 mM Tris-HCl, 1 mM EDTA, 1 mM o-phenanthroline, pH 7.4. The homogenate was centrifuged at 50,000×g for 20 minutes. The pellet was resuspended and homogenized a second time in Tris buffer, and the centrifugation step was repeated. The final pellet was resuspended in assay buffer (20 mM HEPES, 120 mM NaCl, 5 mM KCl, 1 mM o-phenanthroline, 0.2 uM of […] form and active metabolite of […] added to inhibit angiotensin converting enzyme), 100 μg/ml bacitracin, 3 μM amastatin, 1 μM phosphoramidon, 0.1% BSA, pH 7.4. The assay was carried out in a 0.5 ml volume at room temperature for sixty minutes with 10 mg wet weight tissue/tube. Total protein was determined using a Bio Rad DC assay kit. […] FIG. 9A, 9B and 9C show measurements of the amount of total, nonspecific and specific binding of ^3H-DALK to transgenic rat brain tissue which expresses human B1 bradykinin receptor. […] In contrast, no B1 receptor is detected in the brains of non-transgenic rats. The Ki values determined for three standard lead compounds in Line 0004 are very similar to those obtained at the cloned hB1 receptor expressed in CHO cells. Therefore, expression of the human B1 bradykinin receptor in Line 0004 has the properties expected for the human B1 receptor.

With [des-Arg^10, Leu^9]-Kallidin [^3H-DALK] the specific binding (endogenous B1 receptor) was “did not show any specific binding signal”, the specific binding (endogenous B1 receptor; listed as [H-3] DALK) was “no detectable specific binding” and the “affinity for the human B1 receptor relative to the rat B1 receptor” value [1] was “greater affinity”. The selectivity ([1]; printed as 'approximately 40 fold selective for this ligand') was “approximately 40 fold”, the “expression (specific binding of 3H-DALK, saturation binding)” value (“expression” below) ([1]; transgenic rat Line 0004 brain membranes, FIG. 9A) was 40 fmol/mg protein and the “expression” value ([1]; transgenic rat Line 0014 brain membranes, FIG. 9B) was 4 fmol/mg protein. For the same substance, the “expression” value ([1]; transgenic rat Line 0015 brain membranes, FIG. 9C) was 7 fmol/mg protein and the “binding site in transgenic rats expressing the human B1 receptor” value ([1]; whole brain homogenate assay or receptor autoradiography of brain slices) was “readily detectable”.

— US20070011757A1, “Transgenic rodents as animal models for modulation of B1 bradykinin receptor protein” (priority 2001, published 2007)
